Test results: EP1997826A2, “Synthetic ligands for immunoglobulins and pharmaceutical compositions containing them” (Tecnogen S.p.A., priority 2007, dated 2008)

Test system: RBL 2H3 cells
Assay: assay for degranulation of the RBL 2H3 cells (release of β-hexose-aminidase induced by anti-DNP IgE and DNP-BSA antigen)
Assay type: cell-based, rat
Excerpt: The RBL 2H3 cell line, rat basophils that express the receptor with high affinity for the immunoglobulins of class E (FcεRl), is widely used for investigating allergic reactions, because in this cell line the chemical mediators of inflammation are released as a result of allergen specific-IgE-FcεRI binding.
Release of the enzyme β-hexose-aminidase, which is present together with histamine in the granules of mast cells and basophils, can be used as an index of cellular degranulation (Tanaka et al., 1991, Chem. Pharm. Bull, 39, 2072-2076; McCloskey et al., 1988, Proc. Natl. Acad. Sci., USA, 85, 7260-7264).
The activity of the enzyme β-hexose-aminidase, released by the stimulated RBL 2H3 cells, was determined by the method described by Yamanishi et al., 1995, Jour. Biotech. Biochem., 59 (7), 1272-1275, which envisages measurement of the enzymatic activity by measuring the absorbance of the product p-nitrophenol generated by the synthetic substrate p-nitrophenyl-N-acetyl-β-D-glucosamide. 1x10^5 RBL 2H3 cells, trypsinized from plates at confluence, were resuspended in a volume of 80 µl of the culture medium (MEM + 10% inactivated fetal bovine serum) and distributed in each well of the 96-well plates (Costar). After 24 hours, 20 µl of medium containing anti-2,4-dinitrophenol monoclonal IgEs (DNP, Sigma, Cat. No. D-8406) was added to each well.
The microplates were incubated at 37°C for one hour and then washed three times with 100 µl of HBS buffer solution (10 mM HEPES, 135 mM NaCl, 5 mM KCI, 1 mM CaCl2, 0.5 mM MgCl2, 5.6 mM glucose, 0.1 % BSA, pH 7.4). After the washings, 100 µl of HBS containing the 2,4-dinitrophenol antigen conjugated to BSA (Sigma, Cat. No. A-6661) was added. As a control, 100 µl of HBS containing 1% Triton X-100 was added to some wells to determine the total amount of enzyme contained in the cellular granules.
After further incubation at 37°C for two hours, 30 µl of cellular supernatant or of cellular lysate was transferred to a new microplate, to which 50 µl of sodium citrate buffer at pH 4.5, containing 4 mM p-nitrophenyl-N-acetyl-β-D-glucosaminide (Sigma, Cat. No. N9376), a specific substrate for the enzyme β-hexose-aminidase, had been added beforehand. After incubation for two hours at 37°C, the reaction was stopped by adding 100 µl of glycine solution 0.2 M, pH 10.7. The enzymatic activity was determined by measuring the absorbance at 405 nm with a Microplate Reader Model 3550 EIA (Bio-Rad).
In preliminary experiments the immunoglobulins E and the antigen were added at various concentrations in order to determine the optimum concentrations for induction of the reaction of enzymatic release. The conditions identified experimentally correspond to 0.5 µg/ml of IgE and 0.05 µg/ml of antigen DNP conjugated to BSA.
To verify the capacity of the peptides of formula IB and of comparative peptides for inhibiting the degranulation of the RBL 2H3 cells, the peptides were added in the assay together with the antigen at concentrations between 0.1 and 500 µg/ml.

Question: “(H-L-Cys(p-MeOBzl)-L-Arg-L-Thr-L-Tyr)2-Lys-Gly-Lys-OH [ID]” was tested. Which “inhibition of degranulation, result in words compared with peptide IB” value did it give?
Answer: Results similar to the results obtained with peptide IB
